Reference: patent publication US20260262643A1, “HERBICIDAL BENZOXAZINES” (FMC CORPORATION, priority 2022, published 2026)

Columns and labels:
rice = assay: Test D flooded paddy test; format: in vivo, Oryza sativa; details: 250 g ai/ha, applied to paddy water, visual rating after 13 to 14 days, scale 0 to 100 (0 no effect, 100 complete control)
Outline: (§1)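 Seedlings reached the 2-leaf stage, then pots were flooded to 3 cm over the soil surface. Compound was applied into the water, depth was maintained, and plants stayed in the greenhouse 13 to 14 days before visual scoring (0–100) relative to controls.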

sedge, umbrella = assay: Test D flooded paddy test; format: in vivo, Cyperus difformis; details: 250 g ai/ha, applied to paddy water, visual rating after 13 to 14 days, scale 0 to 100 (0 no effect, 100 complete control)
Outline: as §1

corn [1] = assay: Test C postemergence; format: in vivo, Zea mays; details: 10 days, 0 to 100 scale (0 no effect, 100 complete control)
Outline: (§2)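 Pre: seeds in loam/sand, directed soil spray. Post: 1–2 leaf plants, 2–10 cm. Cmpd in non-phytotoxic solvent + surfactant. Greenhouse 10 d; visual rating vs untreated, 0 = none, 100 = complete control.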

barnyardgrass [2] = assay: Test C preemergence; format: in vivo, Echinochloa crusgalli
Outline: as §2

oat, wild [3] = assay: Test C preemergence; format: in vivo, Avena fatua
Outline: as §2

barnyardgrass [4] = assay: Test D flooded paddy test; format: in vivo, Echinochloa crus-galli; details: 250 g ai/ha, applied to paddy water, visual rating after 13 to 14 days, scale 0 to 100 (0 no effect, 100 complete control)
Outline: as §1

ryegrass, Italian [5] = assay: Test C preemergence; format: in vivo, Lolium multiflorum
Outline: as §2

ryegrass, Italian [6] = assay: Test C postemergence; format: in vivo, Lolium multiflorum; details: 10 days, 0 to 100 scale (0 no effect, 100 complete control)
Outline: as §2

blackgrass [7] = assay: Test C postemergence; format: in vivo, Alopecurus myosuroides; details: 10 days, 0 to 100 scale (0 no effect, 100 complete control)
Outline: as §2

pigweed, palmer [8] = assay: Test C postemergence; format: in vivo, Amaranthus palmeri; details: 10 days, 0 to 100 scale (0 no effect, 100 complete control)
Outline: as §2

kochia [9] = assay: Test C postemergence; format: in vivo, Bassia scoparia; details: 10 days, 0 to 100 scale (0 no effect, 100 complete control)
Outline: as §2

pigweed, palmer [10] = assay: Test C preemergence; format: in vivo, Amaranthus palmeri
Outline: as §2

kochia [11] = assay: Test C preemergence; format: in vivo, Bassia scoparia
Outline: as §2

horseweed = assay: Test C postemergence; format: in vivo, Erigeron canadensis; details: 10 days, 0 to 100 scale (0 no effect, 100 complete control)
Outline: as §2

ragweed [12] = assay: Test C preemergence; format: in vivo, Ambrosia artemisiifolia
Outline: as §2

blackgrass [13] = assay: Test C preemergence; format: in vivo, Alopecurus myosuroides
Outline: as §2

soybean [14] = assay: Test C postemergence; format: in vivo, Glycine max; details: 10 days, 0 to 100 scale (0 no effect, 100 complete control)
Outline: as §2

wheat [15] = assay: Test C postemergence; format: in vivo, Triticum aestivum; details: 10 days, 0 to 100 scale (0 no effect, 100 complete control)
Outline: as §2

green foxtail [16] = assay: Test C preemergence; format: in vivo, Setaria viridis
Outline: as §2

ragweed [17] = assay: Test C postemergence; format: in vivo, Ambrosia artemisiifolia; details: 10 days, 0 to 100 scale (0 no effect, 100 complete control)
Outline: as §2

ducksalad = assay: Test D flooded paddy test; format: in vivo, Heteranthera limosa; details: 250 g ai/ha, applied to paddy water, visual rating after 13 to 14 days, scale 0 to 100 (0 no effect, 100 complete control)
Outline: as §1

corn [18] = assay: Test C preemergence; format: in vivo, Zea mays
Outline: as §2

wheat [19] = assay: Test C preemergence; format: in vivo, Triticum aestivum
Outline: as §2

galium = assay: Test C postemergence; format: in vivo, Galium aparine; details: 10 days, 0 to 100 scale (0 no effect, 100 complete control)
Outline: as §2

soybean [20] = assay: Test C preemergence; format: in vivo, Glycine max
Outline: as §2

barnyardgrass [21] = assay: Test C postemergence; format: in vivo, Echinochloa crusgalli; details: 10 days, 0 to 100 scale (0 no effect, 100 complete control)
Outline: as §2

green foxtail [22] = assay: Test C postemergence; format: in vivo, Setaria viridis; details: 10 days, 0 to 100 scale (0 no effect, 100 complete control)
Outline: as §2

oat, wild [23] = assay: Test C postemergence; format: in vivo, Avena fatua; details: 10 days, 0 to 100 scale (0 no effect, 100 complete control)
Outline: as §2

[24] = 500 g ai/ha, preemergence, 0 to 100 scale (0 no effect, 100 complete control)
[25] = Preemergence, 125 g ai/ha, 0 to 100 scale, 0 no effect, 100 complete control

Which results are given for CNc1ncn(-c2cccc(C(=O)N3C[C@H](C)Oc4c(C)cccc43)c2)n1 [Compound 337]?
Plant response rating, Rice (Flood) (rice): 0; Plant response rating, Sedge, Umbrella (Flood) (sedge, umbrella): 0; Plant response rating, Corn (corn [1]; 500 g ai/ha, postemergence): 60; Plant response rating, Corn (corn [1]; Postemergence, 125 g ai/ha): 10; Barnyardgrass plant response rating (barnyardgrass [2]; [24]): 90; Plant response rating, Barnyardgrass (barnyardgrass [2]; [25]): 30; Oat, Wild plant response rating (oat, wild [3]; [24]): 20; Plant response rating, Oat, Wild (oat, wild [3]; [25]): 0; Plant response rating, Barnyardgrass (Flood) (barnyardgrass [4]): 0; Ryegrass, Italian plant response rating (ryegrass, Italian [5]; [24]): 90; Plant response rating, Ryegrass, Italian (ryegrass, Italian [5]; [25]): 50; Plant response rating, Ryegrass, Italian (ryegrass, Italian [6]; 500 g ai/ha, postemergence): 70; Plant response rating, Ryegrass, Italian (ryegrass, Italian [6]; Postemergence, 125 g ai/ha): 20; Plant response rating, Blackgrass (blackgrass [7]; 500 g ai/ha, postemergence): 90; Plant response rating, Blackgrass (blackgrass [7]; Postemergence, 125 g ai/ha): 40; Plant response rating, Pigweed, Palmer (pigweed, palmer [8]; 500 g ai/ha, postemergence): 70; Plant response rating, Pigweed, Palmer (pigweed, palmer [8]; Postemergence, 125 g ai/ha): 20; Plant response rating, Kochia (kochia [9]; 500 g ai/ha, postemergence): 70; Plant response rating, Kochia (kochia [9]; Postemergence, 125 g ai/ha): 50; Pigweed, Palmer plant response rating (pigweed, palmer [10]; [24]): 100; Plant response rating, Pigweed, Palmer (pigweed, palmer [10]; [25]): 0; Kochia plant response rating (kochia [11]; [24]): 80; Plant response rating, Kochia (kochia [11]; [25]): 0; Plant response rating, Horseweed (horseweed; 500 g ai/ha, postemergence): 20; Plant response rating, Horseweed (horseweed; Postemergence, 125 g ai/ha): 0; Ragweed plant response rating (ragweed [12]; [24]): 50; Plant response rating, Ragweed (ragweed [12]; [25]): 30; Blackgrass plant response rating (blackgrass [13]; [24]): 50; Plant response rating, Blackgrass (blackgrass [13]; [25]): 20; Plant response rating, Soybean (soybean [14]; 500 g ai/ha, postemergence): 100; Plant response rating, Soybean (soybean [14]; Postemergence, 125 g ai/ha): 90; Plant response rating, Wheat (wheat [15]; 500 g ai/ha, postemergence): 20; Plant response rating, Wheat (wheat [15]; Postemergence, 125 g ai/ha): 10; Foxtail, Green plant response rating (green foxtail [16]; [24]): 100; Plant response rating, Foxtail, Green (green foxtail [16]; [25]): 90; Plant response rating, Ragweed (ragweed [17]; 500 g ai/ha, postemergence): 60; Plant response rating, Ragweed (ragweed [17]; Postemergence, 125 g ai/ha): 20; Plant response rating, Ducksalad (Flood) (ducksalad): 0; Corn plant response rating (corn [18]; [24]): 40; Plant response rating, Corn (corn [18]; [25]): 0; Wheat plant response rating (wheat [19]; [24]): 10; Plant response rating, Wheat (wheat [19]; [25]): 0; Plant response rating, Galium (galium; 500 g ai/ha, postemergence): 90; Plant response rating, Galium (galium; Postemergence, 125 g ai/ha): 40; Soybean plant response rating (soybean [20]; [24]): 40; Plant response rating, Soybean (soybean [20]; [25]): 0; Plant response rating, Barnyardgrass (barnyardgrass [21]; 500 g ai/ha, postemergence): 60; Plant response rating, Barnyardgrass (barnyardgrass [21]; Postemergence, 125 g ai/ha): 10; Plant response rating, Foxtail, Green (green foxtail [22]; 500 g ai/ha, postemergence): 40; Plant response rating, Foxtail, Green (green foxtail [22]; Postemergence, 125 g ai/ha): 30; Plant response rating, Oat, Wild (oat, wild [23]; 500 g ai/ha, postemergence): 30; Plant response rating, Oat, Wild (oat, wild [23]; Postemergence, 125 g ai/ha): 10
